# Measurements reported in US20050239854A1, “Body weight gain inhibitors” (priority 1999, published 2005).
# Assay: Body weight gain-reducing action in KKAy mice
# Conditions: female KKAy mice; for % control (blood glucose level): in admixture with the feed for 4 days, blood glucose relative to own control group = 100
SMILES,% control (blood glucose level) [%],"effect on body weight (in words) (4 days, dose that reduced the blood glucose level to 50-58%)"
"Cc1oc(-c2ccccc2)nc1COc1ccc(CO/N=C(\CCC(=O)O)c2ccccc2)cc1 [compound of Production Example 3, E-4-[4-(5-methyl-2-phenyl-4-oxazolylmethoxy)benzyloxyimino]-4-phenylbutyric acid]",50,–
CN(CCOc1ccc(CC2SC(=O)NC2=O)cc1)c1ccccn1 (stereo not drawn) [rosiglitazone],58,significantly increased the body weight
